# Test results published in US10961203B2, “Crystalline forms of 3-Z-[1-(4-(N-((4-methyl-piperazin-1-yl)-methylcarbonyl)-N-methyl-amino)-phenylamino)-1-phenyl-methylene]-6-methoxycarbonyl-2-indolinone” (Allgenesis Biotherapeutics Inc., priority 2017, dated 2021).
# Assay: Stability test of Crystalline Form F of Nintedanib (XRPD after storage)
# Format: physicochemical
# Settings: polyethylene bag in desiccator, no humidity control, room temperature, three months; FIG. 15 before, FIG. 23 after
# Protocol: In each example, XRPD experiment was conducted using a Bruker D8 advance diffractometer, with a Cu Ka (wavelength 1.54056 Å) filled tube (40 kV, 40 mA) as the X-ray source having a wide angle goniometer, a 0.6 mm divergent slit, a 2.5° primary Sola slit, a 2.5° secondary Sola slit, an 8 mm anti-scattering slit, a 0.1 mm detector slit, and Lynx Eye detector, at room temperature. In a 2θ continuous scanning mode, the data acquisition was completed with a scanning speed of 2.4°/min and a scanning step of 0.02° in the range of 3° to 40°.
# Crystalline Form F of Nintedanib obtained with the preparation method in Example 5 was placed in a polyethylene plastic bag, the plastic bag was then placed in a desiccator with no humidity control at room temperature for three months (from April 12 to July 12).
smiles,measurement,value
"COC(=O)c1ccc2c(c1)NC(=O)/C2=C(\Nc1ccc(N(C)C(=O)CN2CCN(C)CC2)cc1)c1ccccc1 [Crystalline Form F, 3-Z-[1-(4-(N-((4-methyl-piperazin-1-yl)-methylcarbonyl)-N-methyl-amino)-phenylamino)-1-phenyl-methylene]-6-methoxycarbonyl-2-indolinone]",crystalline form by XRPD after storage (stability of Crystalline Form F),all the measurements showed a result of Crystalline Form F
